Source: ChEMBL document CHEMBL1201862, “PubChem BioAssay data set” (2004)
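Five concentrations, 48 hours, 96-well plates. GI50 marks 50% less growth.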 Activity calls are given as the source filed them. Rule as the data show it: active = GI50 up to about 1.1 µM and inactive = higher.

Key:
Assay in all cases: DTP human tumour cell line panel, 48 h
HT-29 = system: HT-29
EKVX = system: EKVX
MDA-N = system: MDA-N
SK-MEL-2 = system: SK-MEL-2
UACC-62 = system: UACC-62
SR = system: SR
Malme-3M = system: Malme-3M
RPMI-8226 = system: RPMI-8226
SNB-75 = system: SNB-75
NCI-H23 = system: NCI-H23
COLO 205 = system: COLO 205
K562 = system: K562
SF-539 = system: SF-539
CCRF-CEM = system: CCRF-CEM
M14 = system: M14
DU-145 = system: DU-145
HCT-15 = system: HCT-15
MDA-MB-435 = system: MDA-MB-435
SF-295 = system: SF-295
HOP-92 = system: HOP-92

Structure (SMILES) | GI50 (HT-29) | GI50 (EKVX) | GI50 (MDA-N) | GI50 (SK-MEL-2) | GI50 (UACC-62) | GI50 (SR) | GI50 (Malme-3M) | GI50 (RPMI-8226) | GI50 (SNB-75) | GI50 (NCI-H23) | GI50 (COLO 205) | GI50 (K562) | GI50 (SF-539) | GI50 (CCRF-CEM) | GI50 (M14) | GI50 (DU-145) | GI50 (HCT-15) | GI50 (MDA-MB-435) | GI50 (SF-295) | GI50 (HOP-92)
O=C(O)c1ccc2[nH]c(=O)oc2c1 | > 100 µM (inactive) | > 100 µM (inactive) | > 100 µM (inactive) | > 100 µM (inactive) | > 100 µM (inactive) | > 100 µM (inactive) | > 100 µM (inactive) | > 100 µM (inactive) | > 100 µM (inactive) | > 100 µM (inactive) | > 100 µM (inactive) | > 100 µM (inactive) | > 100 µM (inactive) | > 100 µM (inactive) | > 100 µM (inactive) | > 100 µM (inactive) | > 100 µM | > 100 µM (inactive) | > 100 µM (inactive) | –
COC(=O)C1=NN2c3ccccc3CN([C@@H](C)c3ccccc3)C(=O)[C@@H]2C1 | 44.1 µM (inactive) | 24.6 µM (inactive) | 28.3 µM (inactive) | 28.7 µM (inactive) | 19 µM (inactive) | 22 µM (inactive) | 23.1 µM (inactive) | 24.5 µM (inactive) | – | 32.9 µM (inactive) | 35.6 µM (inactive) | 21.8 µM (inactive) | 50.7 µM (inactive) | 25.7 µM (inactive) | 16.5 µM (inactive) | 30.8 µM (inactive) | 31.7 µM | 16.6 µM (inactive) | 40.2 µM (inactive) | 34.4 µM (inactive)
CC[C@H](C)C1=C(O)[N@+]2([O-])Oc3ccc(-c4c(O)c(O)c(-c5ccc(OC(C)=O)cc5)c(OC(C)=O)c4OC(C)=O)cc3O[C@]2([C@@H](C)CC)C(=O)N1O | 25.3 µM (inactive) | > 50 µM (inactive) | 34 µM (inactive) | > 50 µM (inactive) | 15 µM (inactive) | 12.5 µM (inactive) | 17.1 µM (inactive) | 12.8 µM (inactive) | – | > 50 µM (inactive) | 16.3 µM (inactive) | 12.3 µM (inactive) | 13.1 µM (inactive) | 10.3 µM (inactive) | 27.6 µM (inactive) | > 50 µM (inactive) | 19.7 µM | 27.9 µM (inactive) | 21.6 µM (inactive) | 11.6 µM (inactive)
NC(C(F)(F)F)(C(F)(F)F)P(=O)(Cc1ccccc1)Cc1ccccc1 | > 100 µM (inactive) | > 100 µM (inactive) | > 100 µM (inactive) | > 100 µM (inactive) | > 100 µM (inactive) | > 100 µM (inactive) | > 100 µM (inactive) | > 100 µM (inactive) | 55.6 µM (inactive) | > 100 µM (inactive) | > 100 µM (inactive) | > 100 µM (inactive) | 42.8 µM (inactive) | > 100 µM (inactive) | > 100 µM (inactive) | > 100 µM (inactive) | > 100 µM | > 100 µM (inactive) | > 100 µM (inactive) | –
Cn1cnc(N2CCCC2)c(C#N)c1=O | > 100 µM (inactive) | > 100 µM (inactive) | > 100 µM (inactive) | > 100 µM (inactive) | > 100 µM (inactive) | > 100 µM (inactive) | > 100 µM (inactive) | > 100 µM (inactive) | – | > 100 µM (inactive) | > 100 µM (inactive) | > 100 µM (inactive) | > 100 µM (inactive) | > 100 µM (inactive) | > 100 µM (inactive) | > 100 µM (inactive) | > 100 µM | > 100 µM (inactive) | > 100 µM (inactive) | > 100 µM (inactive)
